Laboratory results published in patent publication US4265901A, “2-Oxybenzimidazoline compounds” (priority 1979, dated 1981).
Counter-ions that a name gives are not always drawn.

Legend:
[1] = CRC Handbook of Chemistry and Physics; cited from earlier work
guinea pigs = test: Mortality of guinea pigs after intraperitoneal dosing; assay type: in vivo, guinea pig; conditions: for death of guinea pigs: two animals
Procedure: Representative compounds of the present invention were evaluated against larvae of blowfly (Phormia regina) and against adult housefly (Musca domestica). In these evaluations, the candidate compound was administered to each of two male guinea pigs weighing from about 400 grams to about 1000 grams. Administration was via the intraperitoneal route, the compound having been formulated in sesame oil. At twenty-four hours following administration of the compound, blood was withdrawn from the guinea pigs. The serum portion was isolated and blowfly larvae and adult houseflies were fed on the serum. For the blowfly assay, 10 ml. of serum were placed in a test tube with a wick onto which 50 blowfly larvae were placed. The covered test tube was incubated at 27° C. for 24 hours, at which time efficacy of the candidate compound was determined as the percent mortality of the blowfly larvae, adjusted by normal mortality in a control, and reported according to the following rating scale: […]

adult housefly [2] = test: Adult houseflies fed on serum of dosed guinea pigs; assay type: in vivo, Musca domestica; conditions: guinea pig, serum at 24 hours
Procedure: (§1) Representative compounds of the present invention were evaluated against larvae of blowfly (Phormia regina) and against adult housefly (Musca domestica). In these evaluations, the candidate compound was administered to each of two male guinea pigs weighing from about 400 grams to about 1000 grams. Administration was via the intraperitoneal route, the compound having been formulated in sesame oil. At twenty-four hours following administration of the compound, blood was withdrawn from the guinea pigs. The serum portion was isolated and blowfly larvae and adult houseflies were fed on the serum. For the blowfly assay, 10 ml. of serum were placed in a test tube with a wick onto which 50 blowfly larvae were placed. The covered test tube was incubated at 27° C. for 24 hours, at which time efficacy of the candidate compound was determined as the percent mortality of the blowfly larvae, adjusted by normal mortality in a control, and reported according to the following rating scale:
(§2) Percent mortality was determined separately for each guinea pig.
(§3) For the adult housefly test, 10 ml. of serum were employed to saturate a wick which was placed in a petri dish. Twenty-five chilled houseflies were placed in the dish which was then incubated for 24 hours at 27° C. and 50% relative humidity. After the end of the twenty-four hours, the efficacy of the candidate compound was determined as the percent mortality of housefly, adjusted as for blowfly by normal mortality in a control and reported according to the same scale as above.

blowfly larvae [3] = test: Blowfly larvae fed on serum of dosed guinea pigs; assay type: in vivo, Phormia regina; conditions: guinea pig, serum at 24 hours
Procedure: as §1, §2

calf = test: Tolerability in calves (Example 19); assay type: in vivo
Procedure: The compound of Example 3, 2-hydroxy-2,6-bis(trifluoromethyl)-4-nitrobenzimidazoline, sodium salt was evaluated as an ectoparasiticide when administered as pellets implanted in the ear of a calf numbered animal 106. The compound was formulated neat, in tablets about 1/8" thick. A total of 14 pellets was inserted into the left ear of a 215-kilogram calf, to supply a dose of about 5 mg./kg. […] Two other calves received intramuscular injections of aqueous solutions of 2-hydroxy-2,6-bis(trifluoromethyl)-4-nitrobenzimidazoline, sodium salt, to provide 5 or 7.5 mg./kg. of animal body weight. (animals 119 and 121 respectively). […] A control animal was also maintained throughout the test period.

adult housefly [4] = test: Efficacy against adult housefly, calves subcutaneous pellets (Example 20); assay type: in vivo, Musca domestica; conditions: Musca domestica, sc, test day per line
Procedure: as §3
The compound of Example 2, 2-hydroxy-2-(1,1,2,2-tetrafluoroethyl)-4-nitro-6-(trifluoromethyl)benzimidazoline sodium salt, was formulated neat into tablets, each containing about 85 mg. of compound.
These pellets were implanted in the right shoulder area of two calves, weighing 400 and 373 kilograms respectively, to supply a dose of about 5 mg./kg. (animals #651 and 1511, respectively). Another calf (animal #656) was maintained as a control and two additional calves weighing 336 and 350 kilograms (animals #654 and 655, respectively) received pellets of 2-(1,1,2,2-tetrafluoroethyl)-4-nitro-6-(trifluoromethyl)benzimidazole, to supply a dose of about 5 mg./kg. of compound.
(§4) As described in preceding examples, blood samples were withdrawn and analyzed for the concentration of the compound in the blood and percent efficacy against adult housefly and blowfly larvae.

blowfly larvae [5] = test: Efficacy against blowfly larvae, calves subcutaneous pellets (Example 20); assay type: in vivo; conditions: Phormia regina, sc, test day per line
Procedure: as §1
The compound of Example 2, 2-hydroxy-2-(1,1,2,2-tetrafluoroethyl)-4-nitro-6-(trifluoromethyl)benzimidazoline sodium salt, was formulated neat into tablets, each containing about 85 mg. of compound. […]
as §4

[6] = calf 654, pellets about 5 mg./kg.
[7] = calf 655, pellets about 5 mg./kg.

Compound: N [Ammonia, ammonia]
- Kb [1]: 1.79×10^-5

Compound: CC(C)OC1(C(F)(F)C(F)F)Nc2cc(C(F)(F)F)cc([N+](=O)[O-])c2N1 (centres unmarked) [Example 4, 2-Isopropoxy-2-(1,1,2,2-Tetrafluoroethyl)-4-Nitro-6-(Trifluoromethyl)Benzimidazoline, Potassium Salt]
- death of guinea pigs (guinea pigs; 10 mg./kg. i.p.): Both guinea pigs died
- Efficacy Rating, Adult Housefly (adult housefly [2]; 5 mg./kg. i.p.): 5 (100% dead)
- Efficacy Rating, Blowfly Larvae (blowfly larvae [3]; 5 mg./kg. i.p.): 5 (100% dead)

Compound: O=[N+]([O-])c1cc(C(F)(F)F)cc2c1NC(O)(C(F)(F)C(F)F)N2 (centres unmarked) [Example 8, 2-Hydroxy-2-(1,1,2,2-Tetrafluoroethyl)-4-Nitro-6-(Trifluoromethyl)Benzimidazoline, Lithium Salt]
- death of guinea pigs (guinea pigs; 20 mg./kg. i.p.): Both guinea pigs died
- Efficacy Rating, Adult Housefly (adult housefly [2]; 5 mg./kg. i.p.): 5 (100% dead)
- Efficacy Rating, Blowfly Larvae (blowfly larvae [3]; 5 mg./kg. i.p.): 5 (100% dead)

Compound: O=[N+]([O-])c1cc(C(F)(F)F)cc2c1NC(O)(C(F)(F)C(F)F)N2 (centres unmarked) [Example 6, 2-Hydroxy-2-(1,1,2,2-Tetrafluoroethyl)-4-Nitro-6-(Trifluoromethyl)Benzimidazoline, Calcium Salt]
- death of guinea pig (guinea pigs; 5 mg./kg. i.p., one of two animals): Guinea pig died
- Efficacy Rating, Adult Housefly (adult housefly [2]; 5 mg./kg. i.p.): 5 (100% dead)
- Efficacy Rating, Adult Housefly (adult housefly [2]; 10 mg./kg. i.p., Calcium Salt): 5 (100% dead)
- Efficacy Rating, Blowfly Larvae (blowfly larvae [3]; 5 mg./kg. i.p.): 5 (100% dead)
- Efficacy Rating, Blowfly Larvae (blowfly larvae [3]; 10 mg./kg. i.p., Calcium Salt): 5 (100% dead)

Compound: O=[N+]([O-])c1cc(C(F)(F)F)cc2c1NC(O)(C(F)(F)C(F)F)N2 (centres unmarked) [Example 7, 2-Hydroxy-2-(1,1,2,2-Tetrafluoroethyl)-4-Nitro-6-(Trifluoromethyl)Benzimidazoline, Silver Salt]
- death of guinea pigs (guinea pigs; 25 mg./kg. i.p.): guinea pigs died
- death of guinea pigs (guinea pigs; 50 mg./kg. i.p.): guinea pigs died

Compound: O=[N+]([O-])c1cc(C(F)(F)F)cc2c1NC(O)(C(F)(F)F)N2 (centres unmarked) [Example 3, 2-Hydroxy-2,6-Bis(Trifluoromethyl)-4-Nitrobenzimidazoline, Sodium Salt, Monohydrate]
- swelling post-insertion (calf; calf 106, 14 ear pellets, about 5 mg./kg., 6 hours and 1 day): Some swelling was noted
- death of calf (calf; calf 121, 7.5 mg./kg. intramuscular): found dead on day 2

Compound: O=[N+]([O-])c1cc(C(F)(F)F)cc2nc(C(F)(F)C(F)F)[nH]c12 [2-(1,1,2,2-tetrafluoroethyl)-4-nitro-6-(trifluoromethyl)benzimidazole, reference compound]
- Emax at 5 mg/kg (adult housefly [4]; [6]): 100%
- Emax at 5 mg/kg (adult housefly [4]; [7]): 100%
- Emax at 5 mg/kg (blowfly larvae [5]; [6]): 100%
- Emax at 5 mg/kg (blowfly larvae [5]; [7]): 100%
